According to patent US9326506B2, “Preparation method, agricultural composition and applications of natural brassinolide analogs” (CHENGDU NEWSUN CROPSCIENCE CO., LTD, priority 2012, dated 2016):

Tested on: rice
Assay: Low temperature assay on rice seedlings
Assay type: in vivo
Procedure: According to a low temperature assay, we measured parameters including plant height, number of leaf, area of leaf, number of tiller, weight of root at low temperature to completely determine effects of the natural brassinolide analogues on the resistance to low temperature of a plant.
The natural brassinolide analogues, BR1, BR2, BR3, BR4, BR5 and BR6, used herein, were those prepared by the method of Example 1. Respectively the analogues were dissolved into 95% (V/V) ethanol solution, and then diluted with pure water to 1 mg/L, 0.1 mg/L, 0.01 mg/L, 0.001 mg/L and 0.0001 mg/L. In addition, pure water was used as a control.
After rice seeds were disinfected by using 5% sodium hypochlorite solution treatment, they were rinsed with distilled water until their pH>7, placed into a petri dish in a dark incubator, and cultured by using water at 30° C.±2° C. for 9 days. Then respectively the nine-day-old etiolated seedlings of rice were immersed in the above solutions containing different concentrations of the natural brassinolide analogues or pure water, and cultured at the temperature of 1° C., 2° C., 3° C., 4° C. and 5° C. for 24 hr. The parameters including plant height, area of leaf and weight of root after 3, 6, 9 and 12 days and number of leaf and number of tiller after 12 days were measured.

CC(C)[C@H](C)[C@@H](O)[C@H](O)[C@@H](C)[C@H]1CCC2C3COC(=O)C4C[C@H](O)[C@H](O)C[C@]4(C)C3CC[C@@]21C (some centres unmarked) [BR1]
Height (0.01 mg/l, 3 °C, 9 days): 7.4 cm
Weight of root (0.01 mg/l, 3 °C, 9 days): 2.9 g
Area of leaf (0.01 mg/l, 3 °C, 12 days): 13.2 cm^2
Height (0.01 mg/l, 3 °C, 12 days): 7.6 cm
Number of leaf (0.01 mg/l, 3 °C, 12 days): 3
Number of tiller (0.01 mg/l, 3 °C, 12 days): 2
Weight of root (0.01 mg/l, 3 °C, 12 days): 2.9 g
Area of leaf (0.01 mg/l, 4 °C, 3 days): 10.8 cm^2
Height (0.01 mg/l, 4 °C, 3 days): 7.1 cm
Weight of root (0.01 mg/l, 4 °C, 3 days): 2.5 g
Area of leaf (0.01 mg/l, 4 °C, 6 days): 12.4 cm^2
Height (0.01 mg/l, 4 °C, 6 days): 7.3 cm
Weight of root (0.01 mg/l, 4 °C, 6 days): 2.6 g
Area of leaf (0.01 mg/l, 4 °C, 9 days): 13.4 cm^2
Height (0.01 mg/l, 4 °C, 9 days): 7.5 cm
Weight of root (0.01 mg/l, 4 °C, 9 days): 2.9 g
Area of leaf (0.01 mg/l, 4 °C, 12 days): 13.7 cm^2
Height (0.01 mg/l, 4 °C, 12 days): 7.8 cm
Number of leaf (0.01 mg/l, 4 °C, 12 days): 3
Number of tiller (0.01 mg/l, 4 °C, 12 days): 2
Weight of root (0.01 mg/l, 4 °C, 12 days): 3.0 g
Area of leaf (0.01 mg/l, 5 °C, 3 days): 10.9 cm^2
Height (0.01 mg/l, 5 °C, 3 days): 7.7 cm
Weight of root (0.01 mg/l, 5 °C, 3 days): 2.8 g
Area of leaf (0.01 mg/l, 5 °C, 6 days): 13.9 cm^2
Height (0.01 mg/l, 5 °C, 6 days): 7.8 cm
Weight of root (0.01 mg/l, 5 °C, 6 days): 3.0 g
Area of leaf (0.01 mg/l, 5 °C, 9 days): 17.4 cm^2
Height (0.01 mg/l, 5 °C, 9 days): 8.2 cm
Weight of root (0.01 mg/l, 5 °C, 9 days): 3.4 g
Area of leaf (0.01 mg/l, 5 °C, 12 days): 18 cm^2
Height (0.01 mg/l, 5 °C, 12 days): 8.5 cm
Number of leaf (0.01 mg/l, 5 °C, 12 days): 4
Number of tiller (0.01 mg/l, 5 °C, 12 days): 3
Weight of root (0.01 mg/l, 5 °C, 12 days): 3.9 g
Area of leaf (0.1 mg/l, 1 °C, 3 days): 10.1 cm^2
Height (0.1 mg/l, 1 °C, 3 days): 7.0 cm
Weight of root (0.1 mg/l, 1 °C, 3 days): 2.8 g
Area of leaf (0.1 mg/l, 1 °C, 6 days): 11.9 cm^2
Height (0.1 mg/l, 1 °C, 6 days): 7.2 cm
Weight of root (0.1 mg/l, 1 °C, 6 days): 3.0 g
Area of leaf (0.1 mg/l, 1 °C, 9 days): 12.9 cm^2
Height (0.1 mg/l, 1 °C, 9 days): 7.3 cm
Weight of root (0.1 mg/l, 1 °C, 9 days): 3.4 g
Area of leaf (0.1 mg/l, 1 °C, 12 days): 13.4 cm^2
Height (0.1 mg/l, 1 °C, 12 days): 7.5 cm
Number of leaf (0.1 mg/l, 1 °C, 12 days): 3
Number of tiller (0.1 mg/l, 1 °C, 12 days): 3
Weight of root (0.1 mg/l, 1 °C, 12 days): 3.6 g
Area of leaf (0.1 mg/l, 2 °C, 3 days): 10.4 cm^2
Height (0.1 mg/l, 2 °C, 3 days): 7.1 cm
Weight of root (0.1 mg/l, 2 °C, 3 days): 2.9 g
Area of leaf (0.1 mg/l, 2 °C, 6 days): 11.8 cm^2
Height (0.1 mg/l, 2 °C, 6 days): 7.2 cm
Weight of root (0.1 mg/l, 2 °C, 6 days): 3.0 g
Area of leaf (0.1 mg/l, 2 °C, 9 days): 12.8 cm^2
Height (0.1 mg/l, 2 °C, 9 days): 7.3 cm
Weight of root (0.1 mg/l, 2 °C, 9 days): 3.1 g
Area of leaf (0.1 mg/l, 2 °C, 12 days): 13.6 cm^2
Height (0.1 mg/l, 2 °C, 12 days): 7.4 cm
Number of leaf (0.1 mg/l, 2 °C, 12 days): 3
Number of tiller (0.1 mg/l, 2 °C, 12 days): 3
Weight of root (0.1 mg/l, 2 °C, 12 days): 3.2 g
Area of leaf (0.1 mg/l, 3 °C, 3 days): 10.5 cm^2
Height (0.1 mg/l, 3 °C, 3 days): 7.2 cm
Weight of root (0.1 mg/l, 3 °C, 3 days): 2.5 g
Area of leaf (0.1 mg/l, 3 °C, 6 days): 12 cm^2
Height (0.1 mg/l, 3 °C, 6 days): 7.3 cm
Weight of root (0.1 mg/l, 3 °C, 6 days): 2.6 g
Area of leaf (0.1 mg/l, 3 °C, 9 days): 12.8 cm^2
Height (0.1 mg/l, 3 °C, 9 days): 7.4 cm
Weight of root (0.1 mg/l, 3 °C, 9 days): 2.9 g
Area of leaf (0.1 mg/l, 3 °C, 12 days): 13.4 cm^2
Height (0.1 mg/l, 3 °C, 12 days): 7.6 cm
Number of leaf (0.1 mg/l, 3 °C, 12 days): 3
Number of tiller (0.1 mg/l, 3 °C, 12 days): 2
Weight of root (0.1 mg/l, 3 °C, 12 days): 2.9 g
Area of leaf (0.1 mg/l, 4 °C, 3 days): 10.8 cm^2
Height (0.1 mg/l, 4 °C, 3 days): 7.1 cm
Weight of root (0.1 mg/l, 4 °C, 3 days): 2.5 g
Area of leaf (0.1 mg/l, 4 °C, 6 days): 12.5 cm^2
Height (0.1 mg/l, 4 °C, 6 days): 7.4 cm
Weight of root (0.1 mg/l, 4 °C, 6 days): 2.7 g
Area of leaf (0.1 mg/l, 4 °C, 9 days): 13.5 cm^2
Height (0.1 mg/l, 4 °C, 9 days): 7.5 cm
Weight of root (0.1 mg/l, 4 °C, 9 days): 2.9 g
Area of leaf (0.1 mg/l, 4 °C, 12 days): 13.8 cm^2
Height (0.1 mg/l, 4 °C, 12 days): 7.7 cm
Number of leaf (0.1 mg/l, 4 °C, 12 days): 3
Number of tiller (0.1 mg/l, 4 °C, 12 days): 2
Weight of root (0.1 mg/l, 4 °C, 12 days): 3.1 g
Area of leaf (0.1 mg/l, 5 °C, 3 days): 11.1 cm^2
Height (0.1 mg/l, 5 °C, 3 days): 7.7 cm
Weight of root (0.1 mg/l, 5 °C, 3 days): 2.9 g
Area of leaf (0.1 mg/l, 5 °C, 6 days): 13.9 cm^2
Height (0.1 mg/l, 5 °C, 6 days): 7.9 cm
Weight of root (0.1 mg/l, 5 °C, 6 days): 3.2 g
Area of leaf (0.1 mg/l, 5 °C, 9 days): 17.8 cm^2
Height (0.1 mg/l, 5 °C, 9 days): 8.4 cm
Weight of root (0.1 mg/l, 5 °C, 9 days): 3.5 g
Area of leaf (0.1 mg/l, 5 °C, 12 days): 19 cm^2
Height (0.1 mg/l, 5 °C, 12 days): 8.7 cm
Number of leaf (0.1 mg/l, 5 °C, 12 days): 3
Number of tiller (0.1 mg/l, 5 °C, 12 days): 2
Weight of root (0.1 mg/l, 5 °C, 12 days): 4.1 g
Area of leaf (1 mg/l, 1 °C, 3 days): 10 cm^2
Height (1 mg/l, 1 °C, 3 days): 7.1 cm
Weight of root (1 mg/l, 1 °C, 3 days): 2.8 g
Area of leaf (1 mg/l, 1 °C, 6 days): 11.2 cm^2
Height (1 mg/l, 1 °C, 6 days): 7.2 cm
Weight of root (1 mg/l, 1 °C, 6 days): 3.1 g
Area of leaf (1 mg/l, 1 °C, 9 days): 12.4 cm^2
Height (1 mg/l, 1 °C, 9 days): 7.3 cm
Weight of root (1 mg/l, 1 °C, 9 days): 3.4 g
Area of leaf (1 mg/l, 1 °C, 12 days): 13 cm^2
Height (1 mg/l, 1 °C, 12 days): 7.4 cm
Number of leaf (1 mg/l, 1 °C, 12 days): 3
Number of tiller (1 mg/l, 1 °C, 12 days): 3
Weight of root (1 mg/l, 1 °C, 12 days): 3.9 g
Area of leaf (1 mg/l, 2 °C, 3 days): 10.2 cm^2
Height (1 mg/l, 2 °C, 3 days): 7.1 cm
Weight of root (1 mg/l, 2 °C, 3 days): 2.8 g
Area of leaf (1 mg/l, 2 °C, 6 days): 11.7 cm^2
Height (1 mg/l, 2 °C, 6 days): 7.2 cm
Weight of root (1 mg/l, 2 °C, 6 days): 3.0 g
Area of leaf (1 mg/l, 2 °C, 9 days): 12.6 cm^2
Height (1 mg/l, 2 °C, 9 days): 7.3 cm
Weight of root (1 mg/l, 2 °C, 9 days): 3.2 g
Area of leaf (1 mg/l, 2 °C, 12 days): 13 cm^2
Height (1 mg/l, 2 °C, 12 days): 7.5 cm
Number of leaf (1 mg/l, 2 °C, 12 days): 3
Number of tiller (1 mg/l, 2 °C, 12 days): 3
Weight of root (1 mg/l, 2 °C, 12 days): 3.9 g
Area of leaf (1 mg/l, 3 °C, 3 days): 10.4 cm^2
Height (1 mg/l, 3 °C, 3 days): 7.1 cm
Weight of root (1 mg/l, 3 °C, 3 days): 2.5 g
Area of leaf (1 mg/l, 3 °C, 6 days): 12 cm^2
Height (1 mg/l, 3 °C, 6 days): 7.2 cm
Weight of root (1 mg/l, 3 °C, 6 days): 2.6 g
Area of leaf (1 mg/l, 3 °C, 9 days): 12.6 cm^2
Height (1 mg/l, 3 °C, 9 days): 7.5 cm
Weight of root (1 mg/l, 3 °C, 9 days): 2.9 g
Area of leaf (1 mg/l, 3 °C, 12 days): 13.2 cm^2
Height (1 mg/l, 3 °C, 12 days): 7.6 cm
Number of leaf (1 mg/l, 3 °C, 12 days): 3
Number of tiller (1 mg/l, 3 °C, 12 days): 2
Weight of root (1 mg/l, 3 °C, 12 days): 2.9 g
Area of leaf (1 mg/l, 4 °C, 3 days): 10.9 cm^2
Height (1 mg/l, 4 °C, 3 days): 7.1 cm
Weight of root (1 mg/l, 4 °C, 3 days): 2.5 g
Area of leaf (1 mg/l, 4 °C, 6 days): 12.6 cm^2
Height (1 mg/l, 4 °C, 6 days): 7.5 cm
Weight of root (1 mg/l, 4 °C, 6 days): 2.7 g
Area of leaf (1 mg/l, 4 °C, 9 days): 13.7 cm^2
Height (1 mg/l, 4 °C, 9 days): 7.6 cm
Weight of root (1 mg/l, 4 °C, 9 days): 3.0 g
Area of leaf (1 mg/l, 4 °C, 12 days): 14 cm^2
Height (1 mg/l, 4 °C, 12 days): 7.7 cm
Number of leaf (1 mg/l, 4 °C, 12 days): 3
Number of tiller (1 mg/l, 4 °C, 12 days): 2
Weight of root (1 mg/l, 4 °C, 12 days): 3.2 g
Area of leaf (1 mg/l, 5 °C, 3 days): 11.1 cm^2
Height (1 mg/l, 5 °C, 3 days): 7.7 cm
Weight of root (1 mg/l, 5 °C, 3 days): 2.9 g
Area of leaf (1 mg/l, 5 °C, 6 days): 13.6 cm^2
Height (1 mg/l, 5 °C, 6 days): 8.0 cm
Weight of root (1 mg/l, 5 °C, 6 days): 3.5 g
Area of leaf (1 mg/l, 5 °C, 9 days): 18.4 cm^2
Height (1 mg/l, 5 °C, 9 days): 8.6 cm
Weight of root (1 mg/l, 5 °C, 9 days): 3.7 g
Area of leaf (1 mg/l, 5 °C, 12 days): 20 cm^2
Height (1 mg/l, 5 °C, 12 days): 8.9 cm
Number of leaf (1 mg/l, 5 °C, 12 days): 3
Number of tiller (1 mg/l, 5 °C, 12 days): 2
Weight of root (1 mg/l, 5 °C, 12 days): 4.5 g
Effects on resistance to low temperature compared among analogues (in vivo): more than those of BR2, BR3 and BR4
